The format of this data set is in vivo, pig.

For the compound `CN[C@H](CC(C)C)C(=O)N[C@H]1C(=O)N[C@@H](CC(N)=O)C(=O)N[C@H]2C(=O)N[C@H]3C(=O)N[C@H](C(=O)N[C@H](C(=O)O)c4cc(O)cc(O)c4-c4cc3ccc4O)[C@H](O)c3ccc(c(Cl)c3)Oc3cc2cc(c3O[C@@H]2O[C@H](CO)[C@@H](O)[C@H](O)[C@H]2O[C@H]2C[C@](C)(N)[C@H](O)[C@H](C)O2)Oc2ccc(cc2Cl)[C@H]1O` [vancomycin], where the note is “intervertebral disc, pig, 1,000 mg i.v. over 100 min, sampling 8 h”, the “time to a mean MIC of 8 µg/mL” value is “could not be reached”. Further, the “Tmax, time to Cmax” value (plasma (unbound), pig, 1,000 mg i.v. single dose over 100 min, mean (95% CI)) is 75 (61–89) min.
